Series [1] has as its system Totenkopfäffchen. Kind of series: Inhibition of cholesterol absorption after oral [14C]-cholesterol test meal, faecal radioactivity over 2.5 days. It is filed as in vivo. The note with it: in percent of untreated control animals. How it is done:
Einer Gruppe von 12 Totenkopfäffchen wurde ein Gemisch enthaltend Triolein, Stärke, Milchpulver, 1 mg [¹⁴C]-Cholesterin und 0.05 mg [³H]-Polyäthylenglycol und unmittelbar darauf eine Dispersion von CPC in 5% Gummi arabicum oral verabreicht. Hierauf wurde der Kot während 2,5 Tagen gesammelt. Die ausgeschiedene [¹⁴C]-Radioaktivität des Cholesterins wurde unter Berücksichtigung der [³H]-Radioaktivität des internen Standards Polyäthylenglycol ermittelt. Es wurde die Cholesterinabsorption (Differenz zwischen der verabreichten und der ausgeschiedenen [¹⁴C]-Radioaktivität des Cholesterins) berechnet und in der nachfolgenden Tabelle in Prozenten von unbehandelten Kontrolltieren angegeben.

The test system of series [2] is Totenkopfäffchen. Briefly: Plasma cholesterol level during 14 days of feeding with coconut-oil diet. The format is in vivo. The note with it: for Senkung des Cholesterinspiegels in Prozenten der Kontrolltieren: versus placebo. How it is done: Totenkopfäffchen wurde pro Tier und Tag 239 mg Lactose als Placebo oder 239 mg CPC zusammen mit Kokonussöl enthaltendem Futter während 14 Tagen verabreicht. Jede 3 oder 4 Tage wurde den Tieren venöses Blut entnommen und der Cholesterinspiegel im Blutplasma ermittelt. In der nachstehenden Tabelle wird der Cholesterinspiegel in Prozenten der Vorperiode sowie die Senkung des Cholesterinspiegels in Prozenten der Kontrolltieren angegeben.

Series [3] can be described thus: Acute toxicity (LD50). The note with it: mouse, in vivo, Maus, read-out: LD₅₀. The protocol: Was die Toxizität anbelangt, beträgt die LD₅₀ von CPC 125 mg/kg i.v. und 4000 mg/kg p.o. an der Maus.

Like-named read-outs stand apart in the source and are kept apart here.

In the case of `CC(C)CCC[C@@H](C)[C@H]1CC[C@H]2[C@@H]3CC=C4C[C@@H](OP(=O)([O-])OCC[N+](C)(C)C)CC[C@]4(C)[C@H]3CC[C@]12C` [CPC, Cholesteryl-phosphorylcholin], the “Cholesterinabsorption (%)” value was determined as 90 ± 17% in series [1] (Dosis 30 µMol/kg oral), 60 ± 10% in series [1] (Dosis 100 µMol/kg oral) and 12 ± 6% in series [1] (Dosis 300 µMol/kg oral). The “Cholesterinspiegel im Blutplasma in Prozenten der Vorperiode” value in series [2] (Tag 1, vor der Behandlung, 239 mg CPC per animal and day) turned out to be 100±8%; in series [2] (Tag 4, während der Behandlung, 239 mg CPC per animal and day), 88±6%; in series [2] (Tag 7, während der Behandlung, 239 mg CPC per animal and day), 84±4%; in series [2] (Tag 11, während der Behandlung, 239 mg CPC per animal and day) it was 93±13%; in series [2] (Tag 14, während der Behandlung, 239 mg CPC per animal and day), 86±11%; in series [2] (Tag 18, nach der Behandlung, 239 mg CPC per animal and day for 14 days), 94±13%. In series [2] (Tag 21, nach der Behandlung, 239 mg CPC per animal and day for 14 days), the “Cholesterinspiegel im Blutplasma in Prozenten der Vorperiode” value was 97±11%. Also, the “Senkung des Cholesterinspiegels in Prozenten der Kontrolltieren” value is listed as 0% in series [2] (Tag 1, vor der Behandlung); 9% in series [2] (Tag 4, während der Behandlung); 20% in series [2] (Tag 7, während der Behandlung); 13% in series [2] (Tag 11, während der Behandlung); 18% in series [2] (Tag 14, während der Behandlung); 9% in series [2] (Tag 18, nach der Behandlung). For the same compound, the “Senkung des Cholesterinspiegels in Prozenten der Kontrolltieren” value in series [2] (Tag 21, nach der Behandlung) is recorded as 10%. Further, in series [2] (summary, versus placebo values and values of the pre-period), the “reversible Senkung des Plasmacholesterols” value was found to be 10 bis 20%. The LD50 in series [3] (iv) turned out to be 125 mg/kg; in series [3] (po), 4000 mg/kg.

For the origin of these results see patent EP0287014A2, “Cholesteryl-phosphoryl choline for the reduction of the cholesterol level” (F. HOFFMANN-LA ROCHE AG, priority 1987, dated 1988).
